This is an account of results in US20230348487A1, “2-AMINOPYRIMIDINE COMPOUND AND PHARMACEUTICAL COMPOSITION THEREOF AND APPLICATION THEREOF” (GUANGZHOU SALUSTIER BIOSCIENCES CO., LTD., priority 2021, published 2023).

In data set [1] the test system is human acute myeloid leukemia cell line U937. In words: CCK-8 in vitro proliferation inhibition. Format: cell-based. The settings on record: read-out: Inhibitory activity (IC50) on cell proliferation, U937. How it is done: (§1) Cell lines: human chronic myeloid leukemia cell line K562, human acute myeloid leukemia cell line U937, human T lymphocyte leukemia cell line HuT78, and human T lymphoblastic lymphoma cell line Jurkat. Cells were purchased from the Chinese Academy of Sciences Stem Cell Bank or ATCC.
(§2) […] were cultured overnight and suspended cells were directly stimulated with drugs. […] Two repeats were set for each concentration, with a final volume of 200 μL. […] The absorbance values at 450 nm and 650 nm were measured using a microplate reader, and the increment Z (A450-A650) was derived. The inhibitory rate of drugs on cell growth was calculated by GraphPad Prism 8.0.0 through the following formula:
(§3) Inhibition rate (%)(ODcontrol−ODdosing)/ODcontrol×100%
(§4) The half inhibitory concentration (IC50) was calculated. Every experiment was repeated at least three times.

Data set [2] has as its system human T lymphocyte leukemia cell line HuT78. The experiment in a line: CCK-8 in vitro proliferation inhibition. Format: cell-based. The settings on record: read-out: Inhibitory activity (IC50) on cell proliferation, HUT78. On the procedure:
as §1, §2, §3, §4

Data set [3] deals with human T lymphoblastic lymphoma cell line Jurkat. The experiment in a line: CCK-8 in vitro proliferation inhibition. In kind it is cell-based. The conditions noted are these: 72 hours, read-out: Inhibitory activity (IC50) on cell proliferation, JURKAT. How it is done: as §1, §2, §3, §4
Data set [4] relates to human chronic myeloid leukemia cell line K562. The experiment in a line: CCK-8 in vitro proliferation inhibition. Format: cell-based. The settings on record: read-out: Inhibitory activity (IC50) on cell proliferation, K562. On the procedure: as §1, §2, §3, §4
For a further data set, the target named is JAK3 (Homo sapiens (Human), UniProt P52333). The experiment in a line: Z′-Lyte kinase inhibitory activity test. In kind it is biochemical. The conditions noted are these: for JAK3 kinase inhibitory activity and selectivity (in words): summary of Table 3, activity maintained at ATP 1 mM. On the procedure: (§5) Test method: Firstly, test compounds were prepared into 10 mM stock solution with DMSO, and continuously diluted into 10 concentrations at a 3-fold gradient for later use. 5X reaction buffer was diluted with deionized water into 1×reaction buffer (50 mM HEPES pH 7.5, 0.01% Brij-35, 10 mM MgCl2, 1 mM EGTA), which was used to prepare a mixture of kinase and peptide substrate, as well as a phosphorylated peptide substrate solution. The kinase concentration was determined based on enzyme titration, and the final concentration of peptide substrate and phosphorylated peptide substrate was 2 μM. 5 μL of mixture substrate of kinase and peptide substrate was added to each well on the 384 well plate. Then 5 nL of the test compound (starting with a final concentration of 10 μM) was added with an Echo520 Sampler. […] An additional 100% phosphorylation well (5 μL phosphorylated peptide substrate solution), a 0% phosphorylated well (5 μL of a mixture of kinase and peptide substrate, without test compounds and ATP), and a 0% inhibitory well (5 μL of a mixture of kinase and peptide substrate and appropriate concentration of ATP) were set as control. Two repeats were set for each concentration. The above reaction system was incubated at 30° C. for 1.5 hours. […] 2.5 μL of the diluted mixture was added to each well and the system was incubated at 30° C. for another 1 hour. […] The substrate phosphorylation rate was obtained by calculating the ratio, and the activity of the kinase and the effect of the inhibitor on the kinase was further calculated. Every experiment was repeated at least three times.
Chain of JAK3 (P52333 whole entry): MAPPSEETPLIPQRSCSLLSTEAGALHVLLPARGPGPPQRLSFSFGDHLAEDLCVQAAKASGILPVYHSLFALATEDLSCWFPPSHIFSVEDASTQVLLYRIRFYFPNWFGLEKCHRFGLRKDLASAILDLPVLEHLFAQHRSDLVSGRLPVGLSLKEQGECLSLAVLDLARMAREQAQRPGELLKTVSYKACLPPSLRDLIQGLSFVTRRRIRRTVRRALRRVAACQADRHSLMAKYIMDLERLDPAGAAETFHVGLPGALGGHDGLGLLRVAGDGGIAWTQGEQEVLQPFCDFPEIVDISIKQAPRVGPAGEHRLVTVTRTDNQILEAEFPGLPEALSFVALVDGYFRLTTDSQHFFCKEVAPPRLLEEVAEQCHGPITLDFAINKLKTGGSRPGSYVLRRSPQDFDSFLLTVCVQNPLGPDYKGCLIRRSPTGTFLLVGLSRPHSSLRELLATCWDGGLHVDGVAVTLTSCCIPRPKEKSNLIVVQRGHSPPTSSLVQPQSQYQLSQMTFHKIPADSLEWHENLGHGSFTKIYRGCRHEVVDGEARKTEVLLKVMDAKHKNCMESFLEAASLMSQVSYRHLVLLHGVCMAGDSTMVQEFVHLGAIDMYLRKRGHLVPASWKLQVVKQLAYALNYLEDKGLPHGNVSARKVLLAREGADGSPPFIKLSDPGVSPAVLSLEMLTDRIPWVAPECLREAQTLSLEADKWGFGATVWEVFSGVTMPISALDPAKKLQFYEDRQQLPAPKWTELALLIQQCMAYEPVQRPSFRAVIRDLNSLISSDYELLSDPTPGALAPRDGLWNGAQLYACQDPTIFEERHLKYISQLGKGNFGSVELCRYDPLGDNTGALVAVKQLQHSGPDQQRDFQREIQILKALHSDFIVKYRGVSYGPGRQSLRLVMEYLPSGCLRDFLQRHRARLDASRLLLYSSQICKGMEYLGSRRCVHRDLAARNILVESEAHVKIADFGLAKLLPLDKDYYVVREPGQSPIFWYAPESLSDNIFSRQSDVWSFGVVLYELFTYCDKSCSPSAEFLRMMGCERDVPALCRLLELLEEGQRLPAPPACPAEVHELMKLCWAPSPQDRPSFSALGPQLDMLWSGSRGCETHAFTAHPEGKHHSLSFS

The target in another data set is JAK1 (Homo sapiens (Human), UniProt P23458). The experiment in a line: Z′-Lyte kinase inhibitory activity test. In kind it is biochemical. The conditions noted are these: ATP concentration Km. How it is done:
as §5

In the next data set the target is JAK2 (Homo sapiens (Human), UniProt O60674). The experiment in a line: Z′-Lyte kinase inhibitory activity test. In kind it is biochemical. How it is done:
as §5

A further data set concerns the target TYK2 (Homo sapiens (Human), UniProt P29597). The experiment in a line: Z′-Lyte kinase inhibitory activity test. In kind it is biochemical. The settings on record: ATP concentration Km. On the procedure:
as §5

The subject of data set [5] is other subtypes (JAK family). The settings on record: 1 mM ATP concentration; read-out: IC50 of the kinase, other subtypes; cited from earlier work.
A short description of data set [6]: Rat liver microsomes stability test. In kind it is in vitro ADME. The settings on record: for Remaining percentage: rat liver microsomes, average value. How it is done:
Firstly, preheated 0.1 M potassium phosphate buffer with 5 mM MgCl2 (i.e. K/Mg buffer) at pH 7.4±0.1. Prepared the spiked solution for the tested compound and reference compound (500 μM spiked solution: added 5 μL of 10 mM stock solution into 95 μL of acetonitrile; 1.5 μM microsomal spiked solution (0.75 mg/mL): added 1.5 μL of 500 μM spiked solution and 18.75 μL of 20 mg/mL liver microsomes into 479.75 μL of K/Mg buffer). Then NADPH was dissolved in buffer K to prepare a 6 mM, 5 mg/mL NADPH stock solution. At different time points (0-, 5-, 15-, 30-, 45 minutes), 30 μL of 1.5 μM spiked solution containing 0.75 mg/mL of microsome solution was distributed onto the designated detection plate. At 0 min, 150 μL of acetonitrile containing internal standard (IS) was added to the 0 min plate well, followed by 15 μL of NADPH stock solution (6 mM). Then, all plates were pre-incubated at 37° C. for 5 minutes, added 15 μL of NADPH stock solution (6 mM), the reaction was initiated and timed. At 5 minutes, 15 minutes, 30 minutes, and 45 minutes, added 150 μL of acetonitrile solution containing IS to the corresponding wells to stop the reaction. After quenching, the plate was shaken for 10 minutes (600 rpm/min), followed by centrifugation at 6000 rpm/min for 15 minutes. 80 μL of supernatant of each well were transferred into a 96-well sample plate containing 140 μL of ultrapure water to perform LC/MS analysis. The analysis of biological samples and all samples were completed by the analysis laboratory of Medicipia Pharmaceutical Technology (Shanghai) Co., Ltd.
On the technique in general: Liver microsomes are vesicles of endoplasmic reticulum, rich in cytochrome P450 enzymes.

“And” between values parts separate entries of the source, which are not always exact repeats. Equal entries are not always repeated. Where two headings read alike, the source gives them in different places.

Chain of JAK2 (O60674 whole entry): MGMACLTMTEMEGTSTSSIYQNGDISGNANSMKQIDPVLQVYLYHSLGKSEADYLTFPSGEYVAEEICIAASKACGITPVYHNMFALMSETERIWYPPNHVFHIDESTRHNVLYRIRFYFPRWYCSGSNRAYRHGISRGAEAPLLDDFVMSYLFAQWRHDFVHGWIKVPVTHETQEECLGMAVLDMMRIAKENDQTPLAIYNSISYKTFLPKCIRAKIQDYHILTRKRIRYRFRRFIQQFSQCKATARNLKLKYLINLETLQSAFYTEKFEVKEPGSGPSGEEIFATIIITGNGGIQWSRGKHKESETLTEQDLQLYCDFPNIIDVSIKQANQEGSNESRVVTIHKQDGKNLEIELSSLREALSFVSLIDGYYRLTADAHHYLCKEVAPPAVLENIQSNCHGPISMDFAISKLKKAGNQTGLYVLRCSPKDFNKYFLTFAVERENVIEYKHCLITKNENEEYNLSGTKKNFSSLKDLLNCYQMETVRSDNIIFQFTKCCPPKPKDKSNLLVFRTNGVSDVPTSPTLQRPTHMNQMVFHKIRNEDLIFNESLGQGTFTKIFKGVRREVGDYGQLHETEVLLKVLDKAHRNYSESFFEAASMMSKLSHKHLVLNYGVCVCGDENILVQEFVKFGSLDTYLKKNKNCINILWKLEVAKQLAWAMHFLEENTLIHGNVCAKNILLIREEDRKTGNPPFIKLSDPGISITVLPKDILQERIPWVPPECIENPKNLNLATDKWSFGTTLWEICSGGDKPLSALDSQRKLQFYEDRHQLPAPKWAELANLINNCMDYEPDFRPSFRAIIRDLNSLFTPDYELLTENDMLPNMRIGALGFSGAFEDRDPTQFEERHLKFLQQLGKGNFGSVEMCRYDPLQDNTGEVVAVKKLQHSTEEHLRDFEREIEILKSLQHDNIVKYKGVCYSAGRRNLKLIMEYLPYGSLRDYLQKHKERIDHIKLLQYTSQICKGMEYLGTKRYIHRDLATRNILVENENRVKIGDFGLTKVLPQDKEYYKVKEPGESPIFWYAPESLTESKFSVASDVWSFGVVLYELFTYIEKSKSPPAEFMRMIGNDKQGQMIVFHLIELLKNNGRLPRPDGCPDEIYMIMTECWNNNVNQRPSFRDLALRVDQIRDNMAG
Chain of TYK2 (P29597 whole entry): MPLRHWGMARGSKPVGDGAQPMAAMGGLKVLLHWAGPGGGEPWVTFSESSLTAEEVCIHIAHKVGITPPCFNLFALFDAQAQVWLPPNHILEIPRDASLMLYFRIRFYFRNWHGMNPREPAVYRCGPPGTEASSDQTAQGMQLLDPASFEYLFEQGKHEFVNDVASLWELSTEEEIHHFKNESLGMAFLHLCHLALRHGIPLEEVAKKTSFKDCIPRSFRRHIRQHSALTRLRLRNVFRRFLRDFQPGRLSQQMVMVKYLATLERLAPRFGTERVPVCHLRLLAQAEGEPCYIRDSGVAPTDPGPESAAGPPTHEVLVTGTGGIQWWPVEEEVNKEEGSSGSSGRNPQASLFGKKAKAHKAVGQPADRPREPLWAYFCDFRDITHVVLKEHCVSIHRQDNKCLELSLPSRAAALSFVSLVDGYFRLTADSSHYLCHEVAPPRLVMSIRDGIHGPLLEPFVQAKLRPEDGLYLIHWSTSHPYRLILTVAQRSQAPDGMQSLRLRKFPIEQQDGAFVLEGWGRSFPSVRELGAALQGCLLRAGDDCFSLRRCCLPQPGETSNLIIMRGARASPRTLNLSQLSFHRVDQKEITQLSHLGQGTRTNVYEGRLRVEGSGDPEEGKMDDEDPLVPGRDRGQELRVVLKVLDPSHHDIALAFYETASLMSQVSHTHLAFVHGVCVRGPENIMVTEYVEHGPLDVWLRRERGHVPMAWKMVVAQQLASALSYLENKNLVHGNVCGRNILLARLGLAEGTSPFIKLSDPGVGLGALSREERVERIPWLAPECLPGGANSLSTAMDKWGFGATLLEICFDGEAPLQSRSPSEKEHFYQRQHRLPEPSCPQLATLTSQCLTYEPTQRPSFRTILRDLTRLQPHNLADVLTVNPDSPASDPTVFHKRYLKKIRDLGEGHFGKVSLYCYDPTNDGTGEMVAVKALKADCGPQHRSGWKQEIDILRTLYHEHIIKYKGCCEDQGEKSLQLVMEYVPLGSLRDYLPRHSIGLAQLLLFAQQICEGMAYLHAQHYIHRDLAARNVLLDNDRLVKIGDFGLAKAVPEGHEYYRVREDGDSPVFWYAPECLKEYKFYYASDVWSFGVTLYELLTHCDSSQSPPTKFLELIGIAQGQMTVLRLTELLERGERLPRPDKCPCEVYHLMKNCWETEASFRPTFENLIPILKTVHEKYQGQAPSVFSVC
Chain of JAK1 (P23458 whole entry): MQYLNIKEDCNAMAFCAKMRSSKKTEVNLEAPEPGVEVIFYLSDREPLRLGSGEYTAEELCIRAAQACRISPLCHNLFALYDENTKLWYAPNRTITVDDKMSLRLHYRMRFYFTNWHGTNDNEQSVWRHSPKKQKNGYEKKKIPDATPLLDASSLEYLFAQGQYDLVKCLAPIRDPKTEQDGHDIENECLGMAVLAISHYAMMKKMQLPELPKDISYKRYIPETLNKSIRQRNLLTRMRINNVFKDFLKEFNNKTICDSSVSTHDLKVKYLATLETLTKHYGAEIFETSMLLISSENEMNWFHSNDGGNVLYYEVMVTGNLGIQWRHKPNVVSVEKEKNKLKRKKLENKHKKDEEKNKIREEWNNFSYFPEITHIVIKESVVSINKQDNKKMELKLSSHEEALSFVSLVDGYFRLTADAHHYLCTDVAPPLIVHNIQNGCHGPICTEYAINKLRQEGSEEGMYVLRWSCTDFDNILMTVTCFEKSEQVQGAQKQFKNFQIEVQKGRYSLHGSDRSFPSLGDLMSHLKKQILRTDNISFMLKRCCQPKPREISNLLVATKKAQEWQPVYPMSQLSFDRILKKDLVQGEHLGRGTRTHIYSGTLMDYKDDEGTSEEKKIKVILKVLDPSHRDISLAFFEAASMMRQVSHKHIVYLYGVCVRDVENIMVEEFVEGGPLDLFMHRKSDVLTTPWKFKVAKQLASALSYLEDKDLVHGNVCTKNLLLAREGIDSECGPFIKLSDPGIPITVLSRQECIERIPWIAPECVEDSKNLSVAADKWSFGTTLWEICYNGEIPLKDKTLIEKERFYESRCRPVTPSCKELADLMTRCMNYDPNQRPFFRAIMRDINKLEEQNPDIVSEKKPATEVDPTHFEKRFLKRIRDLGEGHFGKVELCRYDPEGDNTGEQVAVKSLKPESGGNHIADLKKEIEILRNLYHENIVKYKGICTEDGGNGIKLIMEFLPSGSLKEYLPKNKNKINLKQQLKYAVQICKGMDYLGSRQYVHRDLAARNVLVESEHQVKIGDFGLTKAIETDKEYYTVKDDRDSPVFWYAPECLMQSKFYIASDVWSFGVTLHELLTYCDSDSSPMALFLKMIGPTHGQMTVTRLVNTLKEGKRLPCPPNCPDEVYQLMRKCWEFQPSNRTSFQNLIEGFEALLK

`C=CC(=O)Nc1cc(Nc2ncc(Cl)c(O[C@@H]3CO[C@H]4[C@@H]3OC[C@H]4O)n2)ccc1N1CCC2(CCN(C)CC2)CC1` [LS 5-91]: the IC50 in data set [1] (Homo sapiens, U-937, 72 hours) was 5.78 nM; in data set [2] (Homo sapiens, HuT78, 72 hours) it was 19.2 nM; in [3] (Homo sapiens, Jurkat), 34.1 nM; in [4] (Homo sapiens, K562, 72 hours), 70.9 nM; against JAK3 (ATP concentration 1 mM), 20.6 nM; on JAK3 (ATP concentration Km) it was 5.5 nM. The IC50 against JAK1 worked out at 895 nM; against JAK2 (ATP concentration Km), 1060 nM; on TYK2, 233 nM. For the same molecule, the “JAK3 kinase inhibitory activity and selectivity (in words)” value on JAK3 is “strong and selective JAK3 kinase inhibitory activity”.

`C=CC(=O)Nc1cc(Nc2ncc(Cl)c(O[C@@H]3CO[C@H]4[C@@H]3OC[C@H]4O)n2)ccc1N1CCC(N(C)C)CC1` [LS 5-102]: the IC50 in data set [1] (Homo sapiens, U-937, 72 hours) was 21.1 nM; in data set [2] (Homo sapiens, HuT78, 72 hours), 92.4 nM; in [3] (Homo sapiens, Jurkat), 290 nM; in data set [4] (Homo sapiens, K562, 72 hours), 866 nM; against JAK3 (ATP concentration 1 mM) it was 2.68 nM; against JAK3 (ATP concentration Km), 2.5 nM. Also, the IC50 was 1040 nM at JAK1, 437 nM against JAK2 (ATP concentration Km) and 241 nM against TYK2. Besides, the “JAK3 kinase inhibitory activity and selectivity (in words)” value at JAK3 is “strong and selective JAK3 kinase inhibitory activity”.

With `C=CC(=O)Nc1cc(Nc2ncc(Cl)cn2)ccc1N1CCC(N2CCN(C)CC2)CC1` [LS 5-126, N-(5-((5-chloropyrimidin-2-yl)amino)-2-(4-(4-methylpiperazin-1-yl)piperidin-1-yl)phenyl) acrylamide], the IC50 was determined as 69.2 nM in data set [1] (Homo sapiens, U-937, 72 hours); 463 nM in data set [2] (Homo sapiens, HuT78, 72 hours); 551 nM in data set [3] (Homo sapiens, Jurkat); 39.9 nM in [4] (Homo sapiens, K562, 72 hours); 4.35 nM at JAK3 (ATP concentration 1 mM); 3.9 nM against JAK3 (ATP concentration Km). For the same molecule, the IC50 at JAK1 was determined as 4770 nM; on JAK2 (ATP concentration Km) it was 2080 nM; at TYK2 it was 3120 nM.

As to `C=CC(=O)Nc1cc(Nc2ncc(Cl)c(O[C@@H]3CO[C@H]4[C@@H]3OC[C@H]4O)n2)ccc1N1CCN(CC)CC1` [LS 5-143], the IC50 came to 12 nM in data set [1] (Homo sapiens, U-937, 72 hours); 75.3 nM in data set [2] (Homo sapiens, HuT78, 72 hours); 128 nM in data set [3] (Homo sapiens, Jurkat); 216 nM in data set [4] (Homo sapiens, K562, 72 hours); 2.17 nM at JAK3 (ATP concentration 1 mM); 2.19 nM on JAK3 (ATP concentration Km). In addition, the IC50 on JAK1 is 481 nM; on JAK2 (ATP concentration Km), 362 nM; against TYK2 it was 166 nM. Besides, the “JAK3 kinase inhibitory activity and selectivity (in words)” value at JAK3 is “strong and selective JAK3 kinase inhibitory activity”.

In the case of `C=CC(=O)Nc1cc(Nc2ncc(Cl)c(O[C@@H]3CO[C@H]4[C@@H]3OC[C@H]4O)n2)ccc1N1CCC(N(C)C)C1` (stereo partly shown) [LS 5-150], the IC50 in data set [1] (Homo sapiens, U-937, 72 hours) is 15.8 nM; in data set [2] (Homo sapiens, HuT78, 72 hours) it was 272 nM; in [3] (Homo sapiens, Jurkat), 275 nM; in [4] (Homo sapiens, K562, 72 hours), 897 nM; at JAK3 (ATP concentration 1 mM), 1.74 nM; at JAK3 (ATP concentration Km), 1.98 nM. The IC50 was found to be 270 nM against JAK1, 606 nM against JAK2 (ATP concentration Km) and 186 nM against TYK2. Further, at JAK3, the “JAK3 kinase inhibitory activity and selectivity (in words)” value is “strong and selective JAK3 kinase inhibitory activity”.

As to `C=CC(=O)Nc1cc(Nc2ncc(Cl)c(O[C@@H]3CO[C@H]4[C@@H]3OC[C@H]4O)n2)ccc1N1C[C@H]2C[C@@H]1CN2C` [LS 5-154], the IC50 in [1] (Homo sapiens, U-937, 72 hours) was 34 nM; in [2] (Homo sapiens, HuT78, 72 hours) it was 717 nM; in data set [3] (Homo sapiens, Jurkat), 346 nM; in data set [4] (Homo sapiens, K562, 72 hours) it was 2410 nM; against JAK3 (ATP concentration 1 mM) it was 1.59 nM; on JAK3 (ATP concentration Km), 1.56 nM. Further, the IC50 came to 800 nM against JAK1, 524 nM at JAK2 (ATP concentration Km) and 188 nM against TYK2. At JAK3, the “JAK3 kinase inhibitory activity and selectivity (in words)” value was “strong and selective JAK3 kinase inhibitory activity”.

As to `C=CC(=O)Nc1cc(Nc2ncc(Cl)c(O[C@@H]3CO[C@H]4[C@@H]3OC[C@H]4OC)n2)ccc1N1CCC(N2CCN(C)CC2)CC1` [LS 6-16], the IC50 in data set [1] (72 hours) was 24 nM; in [2] (72 hours), 121 nM; in data set [3] it was 136 nM; in data set [4] (72 hours), 191 nM; against JAK3, 8.12 nM and 12.5 nM; on JAK1, 533 nM. For the same molecule, the IC50 at JAK2 was 967 nM; on TYK2, 906 nM.

For `C=CC(=O)N1C[C@H](Nc2ncnc3[nH]ccc23)CC[C@@H]1C` [PF-06651600, reference compound], the IC50 in data set [5] was above 10000 nM; in data set [1] (72 hours), 19.5 nM; in [2] (72 hours) it was above 30000 nM; in data set [3], above 30000 nM; in data set [4] (72 hours), above 30000 nM.

In the case of `O=C(c1ccc(F)cc1)C1CCN(CCn2c(=O)[nH]c3ccccc3c2=O)CC1` [ketanserin, reference compound], the Remaining percentage is on record as 100.00% in data set [6] (0 min); 75.87% in data set [6] (5 min); 42.60% in data set [6] (15 min); 29.98% in data set [6] (30 min); 17.88% in data set [6] (45 min). Moreover, in data set [6] (rat, liver microsomes, pH 7.4, rat liver microsomes, read-out: Clint), the CLint scaled at 1 µM stood at 133 mL/min/kg. Also, the half-life at 1 µM in data set [6] (rat, liver microsomes, pH 7.4, rat liver microsomes, read-out: T1/2) turned out to be 18.7 min.
